# Columns and labels:
# [1] = Influencing factor stability study; conditions: for physical and chemical stability (conclusion): influencing factors
# [2] = Hygroscopicity study (DVS); format: physicochemical; conditions: 25° C.; for Hygroscopicity grade: 0% RH-80.0% RH; for Hygroscopicity 0% RH-80.0% RH / Hygroscopicity 0.0% RH-95.0% RH: DVS
# Procedure: DVS refers to dynamic vapor sorption: The measurement was conducted on SMS DVS Advantage; at 25° C., the humidity was changed as follows: 50%-95%-0%-95%-50%, in steps of 10% (5% for the last step) (specific humidity ranges are shown in corresponding patterns, and those listed here were used in most cases); the criterion was dm/dt≤0.002%.
# The measurement was conducted with a Surface Measurement Systems intrinsic at 25° C., starting from 50% humidity in humidity range of 0%-95%, in steps of 10%; the criterion was dM/dT≤0.002% and TMAX of 360 min in two cycles.
# [3] = Long-term/accelerated stability; format: physicochemical; conditions: for Crystal form: up to 3 months; for physical and chemical stability (conclusion): long-term/accelerated study for 3 months
compound,measurement,setting,value
O=P(O)(O)O.O=P(O)(O)O.O=P(O)(O)O.[2H]C1([2H])Oc2cc3c(cc2O1)[C@@H](c1ccc(NC2CN(CCCF)C2)cn1)N(CC(F)(F)CO)[C@H](C)C3 [Crystal form I of phosphate],Crystal form,"[1]; 40° C., 1 month",Crystal form I
same,Purity (%),"[1]; 40° C., 1 month",99.1%
same,Crystal form,"[1]; 40° C., 5 days",Crystal form I
same,Purity (%),"[1]; 40° C., 5 days",99.3%
same,Crystal form,"[1]; 40° C., 10 days",Crystal form I
same,Purity (%),"[1]; 40° C., 10 days",99.1%
same,Crystal form,"[1]; 60° C., 1 month",Crystal form I
same,Purity (%),"[1]; 60° C., 1 month",98.8%
same,Crystal form,"[1]; 60° C., 5 days",Crystal form I
same,Purity (%),"[1]; 60° C., 5 days",99.1%
same,Crystal form,"[1]; 60° C., 10 days",Crystal form I
same,Purity (%),"[1]; 60° C., 10 days",99.1%
same,Crystal form,"[1]; 75% RH, 1 month",Crystal form I
same,Purity (%),"[1]; 75% RH, 1 month",99.4%
same,Crystal form,"[1]; 75% RH, 5 days",Crystal form I
same,Purity (%),"[1]; 75% RH, 5 days",99.3%
same,Crystal form,"[1]; 75% RH, 10 days",Crystal form I
same,Purity (%),"[1]; 75% RH, 10 days",99.4%
same,Crystal form,"[1]; 92.5% RH, 1 month",Crystal form I
same,Purity (%),"[1]; 92.5% RH, 1 month",99.3%
same,Crystal form,"[1]; 92.5% RH, 5 days",Crystal form I
same,Purity (%),"[1]; 92.5% RH, 5 days",99.3%
same,Crystal form,"[1]; 92.5% RH, 10 days",Crystal form I
same,Purity (%),"[1]; 92.5% RH, 10 days",99.3%
same,Crystal form,"[1]; 4500 Lux, 1 month",Crystal form I
same,Purity (%),"[1]; 4500 Lux, 1 month",98.4%
same,Crystal form,"[1]; 4500 Lux, 5 days",Crystal form I
same,Purity (%),"[1]; 4500 Lux, 5 days",98.9%
same,Crystal form,"[1]; 4500 Lux, 10 days",Crystal form I
same,Purity (%),"[1]; 4500 Lux, 10 days",98.8%
same,Crystal form,"[1]; Initial, 0 days",Crystal form I
same,Purity (%),"[1]; Initial, 0 days",99.4%
same,physical and chemical stability (conclusion),[1]; 30 days,good physical and chemical stability
same,Hygroscopicity grade,[2],slightly
same,Crystal form after DVS,[2],Did not change
same,Hygroscopicity 0% RH-80.0% RH,[2],1.2%
same,Hygroscopicity 0.0% RH-95.0% RH,[2],7.1%
same,Crystal form after DVS,[2]; listed as crystal form I,did not change
same,Purity (%) 1 month,[3]; 25° C./60% RH,99.3%
same,Purity (%) 2 months,[3]; 25° C./60% RH,99.3%
same,Purity (%) 3 months,[3]; 25° C./60% RH,99.2%
same,Purity (%) 7 days,[3]; 25° C./60% RH,99.4%
same,Purity (%) 14 days,[3]; 25° C./60% RH,99.5%
same,Purity (%) Initial,[3]; 25° C./60% RH,99.4%
same,Crystal form,[3]; 25° C./60% RH,Unchanged
same,Purity (%) 1 month,[3]; 40° C./75% RH,99.3%
same,Purity (%) 2 months,[3]; 40° C./75% RH,99.2%
same,Purity (%) 3 months,[3]; 40° C./75% RH,99.0%
same,Purity (%) 7 days,[3]; 40° C./75% RH,99.5%
same,Purity (%) 14 days,[3]; 40° C./75% RH,99.5%
same,Purity (%) Initial,[3]; 40° C./75% RH,99.4%
same,Crystal form,[3]; 40° C./75% RH,Unchanged
same,physical and chemical stability (conclusion),[3],good physical and chemical stability
O=S(=O)(O)O.[2H]C1([2H])Oc2cc3c(cc2O1)[C@@H](c1ccc(NC2CN(CCCF)C2)cn1)N(CC(F)(F)CO)[C@H](C)C3 [Crystal form A of sulfate],Crystal form,"[1]; 40° C., 1 month",Crystal form A
same,Purity (%),"[1]; 40° C., 1 month",98.0%
same,Crystal form,"[1]; 40° C., 5 days",Crystal form A
same,Purity (%),"[1]; 40° C., 5 days",98.8%
same,Crystal form,"[1]; 40° C., 10 days",Crystal form A
same,Purity (%),"[1]; 40° C., 10 days",98.7%
same,Crystal form,"[1]; 60° C., 1 month",Crystal form A
same,Purity (%),"[1]; 60° C., 1 month",97.3%
same,Crystal form,"[1]; 60° C., 5 days",Crystal form A
same,Purity (%),"[1]; 60° C., 5 days",98.7%
same,Crystal form,"[1]; 60° C., 10 days",Crystal form A
same,Purity (%),"[1]; 60° C., 10 days",98.6%
same,behaviour under the high-humidity conditions (conclusion),"[1]; 75% RH and 92.5% RH, 30 days",deliquesced
same,Crystal form,"[1]; 75% RH, 1 month",Deliquescence
same,Purity (%),"[1]; 75% RH, 1 month",94.8%
same,Crystal form,"[1]; 75% RH, 5 days",Deliquescence
same,Purity (%),"[1]; 75% RH, 5 days",97.8%
same,Crystal form,"[1]; 75% RH, 10 days",Deliquescence
same,Purity (%),"[1]; 75% RH, 10 days",96.6%
same,Crystal form,"[1]; 92.5% RH, 1 month",Deliquescence
same,Purity (%),"[1]; 92.5% RH, 1 month",95.1%
same,Crystal form,"[1]; 92.5% RH, 5 days",Deliquescence
same,Purity (%),"[1]; 92.5% RH, 5 days",98.1%
same,Crystal form,"[1]; 92.5% RH, 10 days",Deliquescence
same,Purity (%),"[1]; 92.5% RH, 10 days",97.3%
same,Crystal form,"[1]; 4500 Lux, 1 month",Crystal form A
same,Purity (%),"[1]; 4500 Lux, 1 month",92.9%
same,Crystal form,"[1]; 4500 Lux, 5 days",Crystal form A
same,Purity (%),"[1]; 4500 Lux, 5 days",97.4%
same,Crystal form,"[1]; 4500 Lux, 10 days",Crystal form A
same,Purity (%),"[1]; 4500 Lux, 10 days",96.0%
same,Crystal form,"[1]; Initial, 0 days",Crystal form A
same,Purity (%),"[1]; Initial, 0 days",98.9%
same,physical and chemical stability (conclusion),[1]; 30 days,good physical and chemical stability under other conditions except the lighting condition
same,Hygroscopicity grade,[2],hygroscopic
same,Crystal form after DVS,[2],Deliquescence
same,Hygroscopicity 0% RH-80.0% RH,[2],13.3%
same,Hygroscopicity 0.0% RH-95.0% RH,[2],44.1%
same,Crystal form after DVS,[2]; listed as crystal form A,deliquesced
same,Purity (%) 1 month,[3]; 25° C./60% RH,98.9%
same,Purity (%) 2 months,[3]; 25° C./60% RH,98.7%
same,Purity (%) 3 months,[3]; 25° C./60% RH,98.8%
same,Purity (%) 7 days,[3]; 25° C./60% RH,99.0%
same,Purity (%) 14 days,[3]; 25° C./60% RH,98.9%
same,Purity (%) Initial,[3]; 25° C./60% RH,98.9%
same,Crystal form,[3]; 25° C./60% RH,Unchanged
same,Purity (%) 1 month,[3]; 40° C./75% RH,98.7%
same,Purity (%) 2 months,[3]; 40° C./75% RH,98.2%
same,Purity (%) 3 months,[3]; 40° C./75% RH,98.1%
same,Purity (%) 7 days,[3]; 40° C./75% RH,99.2%
same,Purity (%) 14 days,[3]; 40° C./75% RH,98.9%
same,Purity (%) Initial,[3]; 40° C./75% RH,98.9%
same,Crystal form,[3]; 40° C./75% RH,Unchanged
same,physical and chemical stability (conclusion),[3],good physical and chemical stability
